The term EC50 denotes the concentration giving half of the maximal effect. A word on the CC50: it is the concentration giving 50% cytotoxicity.

The subject of data set [1] is HCV Conl subgenomic replicon (GS4.1 cells). Description: HCV replicon assay (NS4A ELISA, HCV ELISA 2). It counts as cell-based. The note with it: Hepatitis C virus; GS4.1 cells, 72 hours, NS4A ELISA; read-out: HCV ELISA 2 EC50. The protocol: (§1) Huh-7 cells containing HCV Conl subgenomic replicon (GS4.1 cells), (C. Seeger; Fox Chase University, Philadelphia, Pa., USA), are grown in Dulbecco's Modified Eagle Medium (DMEM) supplemented with 10% fetal bovine serum (FBS), 2 mM L-glutamine, 110 mg/L sodium pyruvate, 1×non-essential amino acids, 100 U/mL penicillin-streptomycin and 0.5 mg/mL G418 (Invitrogen). For dose-response testing, the cells are seeded in 96-well plates at 7.5×10^3 cells/well in a volume of 50 μL and incubated at 37° C./5% CO2. Three hours after plating, 50 μL of ten 2-fold serial dilutions of compounds (highest concentration, 75 μM) are added and cell cultures were incubated at 37° C./5% CO2 in the presence of 0.5% DMSO. Alternatively, compounds are tested at a single concentration of 15 μM. In all cases, Huh-7 cells lacking the HCV replicon served as negative control. The cells are incubated in the presence of compounds for 72 hours after which they were monitored for expression of the NS4A protein by enzyme-linked immunosorbent assay (ELISA). For this, the plates were then fixed for 1 min with 1:1 acetone:methanol, washed twice with phosphate-buffered saline (PBS), 0.1% Tween 20, blocked for 1 hour at room temperature with TNE buffer containing 10% FBS and then incubated for 2 h at 37° C. with the anti-NS4A mouse monoclonal antibody A-236 (ViroGen) diluted in the same buffer. After washing three times with PBS, 0.1% Tween 20, the cells are incubated 1 hour at 37° C. with anti-mouse immunoglobulin G-peroxidase conjugate in TNE, 10% FBS. After washing as described above, the reaction is developed with O-phenylenediamine (Zymed). The reaction is stopped after 30 minutes with […] and the absorbance is read at 492 nm using a Sunrise Tecan spectrophotometer. EC50 values are determined from the % inhibition versus concentration data using a sigmoidal non-linear regression analysis based on four parameters with Tecan Magellan software. […] For cytotoxicity evaluation, GS4.1 cells are treated with compounds as described above and cellular viability was monitored using a Cell Titer 96 AQueous One Solution Cell Proliferation Assay (Promega). CC50 values are determined from the % cytotoxicity versus concentration data with Tecan Magellan software as described above.
(In antiviral work, replicon cells carry a viral genome segment that copies itself.)

Data set [2] in a line: Cytotoxicity evaluation in GS4.1 cells (Cell Titer 96 AQueous One Solution). It is filed as cell-based. As to conditions: human, 72 hours. The protocol: as §1
Data set [3] is described as follows: Pharmacokinetic (PK) studies, oral, rat. It counts as in vivo. The note with it: orally administered. The protocol: (§2) Methods: For pharmacokinetic (PK) and toxicology studies, B102 were orally administered to rats or monkeys at doses from 20 to 300 mg/kg/day up to 14 days. Hepatic nucleoside TP levels were determined by LC-MS/MS. Compounds (10 mg/kg/day) were administered once daily by oral gavage for 4 days in chimpanzees chronically infected with HCV genotype 1. HCV viral loads were monitored before, during and after treatment by quantitative RT-PCR.

A short description of data set [4]: Pharmacokinetic (PK) studies, oral, monkey. The note with it: orally administered. It counts as in vivo. The protocol:
as §2

The subject of a further data set is HCV genotype 1. Kind of data set: Antiviral activity in chimpanzees chronically infected with HCV genotype 1. It is filed as in vivo. The note with it: 4 days; for Mean viral load reduction: HCV-infected chimpanzees, 10 mg/kg/day oral once daily. The protocol: as §2
Data set [5] concerns wild-type HBV (secreted virions). Kind of data set: Anti-HBV activity in HBV virions via endogenous polymerase assay (EPA). It counts as cell-based. As to conditions: Hepatitis B virus, read-out: Virion EC50 (μM). The protocol:
(§3) Compounds were tested in an anti-HBV assay. Determination of anti-HBV activity in HBV virions and nucleocapsids via endoenous polymerase assays (EPA)
(§4) • 1. 12-well collagen-I coated plates were seeded with producer cells expressing wild-type HBV at a density of 0.5-1×10^6 cells per well in 2 ml growth/selection media. • 2. Drug stock solutions were made up freshly in 100% DMSO as 200× stocks. Five additional 4-fold dilutions were prepared from these 200× stock in 100% DMSO. For each experiment, 4 aliquots of each drug dilution series were stored at −20° C. until used. • 3. Once cells reached confluency (1 day after cells were seeded), drug treatment was initiated by adding 10 μl of drug dilution into 2 ml of fresh growth/selection media. […] The no-drug control wells received only 10 μl of DMSO in fresh media. • 4. Cells were treated every-other-day with 2 ml of fresh drug/medium for a total of 8 days. Cell lysates were then collected on day 10 and subjected to EPA analysis as described below. Preparation of Nucleocapsid-Containing Lysates for Epa Analysis • 1. Cells were grown for 3 to 4 days in 12-well collagen-I coated plates until confluent. • 2. Media was carefully aspirated and the cell monolayers were rinsed once with 1 ml of PBS. • 3. One ml of lysis buffer (50 mM Tris-HCl pH 7.5/150 mM NaCl/5 mM MgCl2/0.2% NP-40) was added to each well. Plates were stored on ice for 30 min to 4 h. • 4. Lysed cells were transferred to 1.5 ml-microfuge tubes. • 5. Lysates were clarified by spinning at 14,000 rpm for 5 min at room temperature. • 6. Clarified lysates were transferred to fresh tubes and immediately frozen on dry-ice, then stored at −80° C. until endogenous polymerase assays were performed as described below. Preparation of Secreted Virions from Supernatant for Epa Analysis • 1. Cells were grown for 3 to 4 days in 12-well collagen-I coated plates until confluent. • 2. Media was carefully aspirated and transferred to 1.5 ml-microfuge tubes. • 3. Supernatants were clarified by spinning at 14,000 rpm for 5 min at room temperature. • 4. Clarified supernatants were transferred to fresh tubes and immediately frozen on dry-ice, then stored at −80° C. until endogenous polymerase assays were performed essentially as described below. Endogenous Polymerase Assay (EPA) of Cell Lysates and Supernatants • 1. EPAs were performed essentially as described by Seifer et al (1998). Intracellular HBV nucleocapsids were immunoprecipitated from the cytoplasmic lysates overnight at 4° C. with a polyclonal rabbit anti-HBcAg antibody and immobilized on protein A sepharose CL-4B beads. Secreted virions were immunoprecipitated from clarified cell supernatants overnight at 4° C. with a monoclonal mouse anti-LS antibody (MA18/7) in the absence of detergent. • 2. Following 3 washes of the immobilized capsids or virions with 1 ml of EPA wash buffer (75 mM NH4Cl, 50 mM Tris-HCl pH 7.4, 1 mM EDTA), endogenous polymerase reactions were initiated by adding 50 μl of detergent-containing EPA cocktail (50 mM Tris-HCl pH7.4, 75 mM NH4Cl, 1 mM EDTA, 20 mM MgCl2, 0.1 mM β-ME, 0.5% NP-40, 100 μM cold dGTP, TTP, dCTP, and 50 nM ^33P-dATP) and incubated overnight at 37° C. The detergent is required to strip the outer envelope from immunoprecipitated virions as well as to enhance permeability of the nucleocapsids. • 3. Following digestion with 1 mg/ml of proteinase K for 1 h at 37° C., endogenously ^33P-labeled HBV DNA was liberated via phenol/chloroform extraction. • 4. The nucleic acids were precipitated with 1 volume of 5M NH4-acetate and 2.5 volumes of 100% EtOH, and then separated on a 1% native agarose gel in Tris-borate-EDTA buffer. • 5. Gels were blotted onto positively charged nylon membrane overnight at room temperature via capillary transfer in 0.4 N NaOH. • 6. Dried membranes were exposed to a Phosphorlmager screen (GE Healthcare) overnight at room temperature, then scanned (Storm 860, GE Healthcare) and quantitated with ImageQuant software (GE Healthcare). • 7. […]

Data set [6] concerns wild-type HBV (intracellular nucleocapsids). Kind of data set: Anti-HBV activity in HBV nucleocapsids (RI) via endogenous polymerase assay (EPA). It is filed as cell-based. As to conditions: Hepatitis B virus. The protocol: as §3, §4
The test system of another data set is HBV wt (HepG2). Kind of data set: Anti-HBV activity in HBV-infected HepG2 cells. It is filed as cell-based. The note with it: N=3. The protocol:
The compound of Example 1 (NM 204) (Hydroxy-tBuSATE N-benzylphosphoramidate derivative of L-ddA) (A550) was contacted with HBV-infected HepG2 cells. EC50 values were measured according to standard techniques.

Where [7] appears, read: wild-type HBV producer cell line, intracellular nucleocapsids, EPA, read-out: RI EC50.

Structures are written as SMILES. Where two headings read alike, the source gives them in different places.

As to `CC(C)(CO)C(=O)SCCOP(=O)(NCc1ccccc1)OC[C@H]1O[C@@H](n2ccc(N)nc2=O)[C@](C)(O)[C@@H]1O` (mixture of isomers) [Example B102, Hydroxy-tBuSATE N-benzylphosphoramidate Derivative of 2′-C-methylcytidine], the EC50 in data set [1] fell in the range of 1000 to 10000 nM. In data set [2], this compound yielded a CC50 of over 75000 nM. In addition, in data set [3], the first-pass hepatic extraction is recorded as over 95% and the systemic exposure is under 1%. In data set [4], this compound came in with a first-pass hepatic extraction of over 95% and a systemic exposure of under 1%. Besides, in the data set with HCV genotype 1, the “Mean viral load reduction” value is 1.5 log 10. Further, in the data set with HCV genotype 1 (chimpanzees, 10 mg/kg/day oral), the “lab abnormalities or evidence of toxicities” value is on record as “No lab abnormalities or evidence of toxicities were observed”.

For `CC(C)NP(=O)(OCCSC(=O)C(C)(C)CO)OC[C@@H]1CC[C@H](n2cnc3c(N)ncnc32)O1` (stereo partly drawn) [A348 (NM 48)], the EC50 in data set [5] was under 1 µM.

As for `CC(C)NP(=O)(OCCSC(=O)C(C)(CO)CO)OC[C@H]1CC[C@@H](n2cnc3c(N)ncnc32)O1` (stereo partly drawn) [A361 (NM 55)], the EC50 is over 10 µM in data set [5] and 1 to 10 µM in data set [6] (setting [7]).

Turning to `CC(C)NP(=O)(OCCSC(=O)C(C)(CO)CO)OC[C@@H]1CC[C@H](n2cnc3c(N)ncnc32)O1` (stereo partly drawn) [A362 (NM 77)], the EC50 in data set [5] and in data set [6] (setting [7]) was 1 to 10 µM in each case.

For `CC(C)(CO)C(=O)SCCOP(=O)(NCc1ccccc1)OC[C@H]1CC[C@@H](n2cnc3c(N)ncnc32)O1` (stereo partly drawn) [A550 (NM 204)], the EC50 in data set [5] and in data set [6] (setting [7]) was under 1 µM in each case.

As to `CC(C)N(C(C)C)P(=O)(OCCSC(=O)C(C)(C)CO)OC[C@@H]1CC[C@H](n2cnc3c(N)ncnc32)O1` (stereo partly drawn) [A616 (NM 128)], the EC50 in data set [6] (read-out: RI EC50 (μM)) lay in the range of 1 to 10 µM.

Turning to `CC(C)(CO)C(=O)SCCOP(=O)(NCc1ccccc1)OC[C@@H]1CC[C@H](n2cnc3c(N)ncnc32)O1` (stereo partly drawn) [C819 (NM 177)], the EC50 in data set [5] and in data set [6] (setting [7]) was 1 to 10 µM each time.

Consider `CC(C)(CO)C(=O)SCCOP(=O)(NCc1ccccc1)OC[C@H]1CC[C@@H](n2cnc3c(N)ncnc32)O1` (stereo partly drawn) [Ex 1 (A550)], for which the response in the data set on HBV wt (HepG2) (Hepatitis B virus) was half-maximal at 62 ± 18 nM (EC50).

For the compound `CC(C)NP(=O)(OCCSC(=O)C(C)(C)CO)OC[C@H]1CC[C@@H](n2cnc3c(N)ncnc32)O1` (stereo partly drawn) [Example C791], in data set [5], the EC50 was in the range of 1 to 10 µM.

`Cc1cn([C@@H]2CC(O)[C@H](CO)O2)c(=O)[nH]c1=O` (stereo partly drawn) [L-dT, Telbivudine, reference compound]: the EC50 in data set [6] (setting [7]) is under 1 µM.

In the data set with HBV wt (HepG2) (Hepatitis B virus), `Nc1ccn([C@@H]2CS[C@H](CO)O2)c(=O)n1` [Lamivudine, lamivudine] came in with an EC50 of 22 ± 7 nM.

Consider `Nc1ncnc2c1ncn2[C@@H]1CC[C@H](CO)O1` [LddA, L-ddA], for which, in the data set on HBV wt (HepG2), the EC50 was over 10000 nM.

As for `CC(C)[C@H](N)C(=O)O[C@@H]1[C@@H](CO)O[C@@H](n2ccc(N)nc2=O)[C@]1(C)O` [valopicitabine, reference compound], the “Mean viral load reduction” value in the data set on HCV genotype 1 turned out to be 0.7 log 10.

The values are drawn from US7951789B2 (priority 2006, dated 2011).
